The subject of this assay is Influenza A virus. Nature of the assay: Antiviral activity against Influenza A/WSN/33 harboring H275Y mutant at 0.3 uM. The class given is functional, organism-based.

Structures are written as SMILES. Activity calls are given as the source filed them. The rule behind the calls is not given here.

For the molecule `CC(C)(C)N(CC(=O)O)Nc1nc(-c2c[nH]c3ncc(F)cc23)ncc1F`, the outcome was Active.

(Values after ChEMBL document CHEMBL5385878, “Synthesis and structure-activity optimization of 7-azaindoles containing aza-β-amino acids targeting the influenza PB2 subunit” (Eur J Med Chem, 2023).)
